Our source for the IC50 values is US20230101747A1 (Schrödinger, Inc., priority 2019, published 2023).

This experiment deals with T1, Full length human CDC7 protein co-expressed with DBF4 (Homo sapiens, UniProt O00311).
T1 construct: Full length human CDC7 protein co-expressed with DBF4; purchased SignalChem (China)
Put plainly: CDC7 kinase biochemical assay (ADP-Glo, PDKtide substrate). The conditions noted are these: 0.1 nM CDC7/DBF4, 1 uM ATP, 10 uM PDKtide, 4 h; read-out: CDC7 ADP-Glo PDKtide IC50. As for the experimental part: CDC7 Kinase Biochemical Assay Protocol:
Full length human CDC7 protein co-expressed with DBF4 was purchased from SignalChem (China). CDC7 kinase activity was determined with PDKtide (SignalChem) as a substrate and by measuring ADP production using the ADP-Glo™ Kinase Assay kit (Promega) following the manufacturers instructions. The kinase reaction was performed using the following conditions: Buffer: 40 mM Tris pH 7.5, 20 mM MgCl2, 0.1 mg/ml BSA and 50 uM DTT. Final reaction mix contained 0.1 nM CDC7/DBF4, 1 uM ATP and 10 uM PDKtide. The kinase reaction time was 4 h. The ADP-Glo signal was measured using an EnVision plate reader (PerkinELmer).
Percent inhibition of CDC7 kinase activity was calculated based on the following formula: […]
SSample: the signal of compounds SHigh ctrl: the signal of high control (DMSO) SLow Ctrl: the signal of low control (positive control CDC7 inhibitor)

Structures are written as SMILES. pIC50: −log10 of the molar value. Where only a bound is given, the exact number is not on record here.

T1 sequence (O00311 whole entry): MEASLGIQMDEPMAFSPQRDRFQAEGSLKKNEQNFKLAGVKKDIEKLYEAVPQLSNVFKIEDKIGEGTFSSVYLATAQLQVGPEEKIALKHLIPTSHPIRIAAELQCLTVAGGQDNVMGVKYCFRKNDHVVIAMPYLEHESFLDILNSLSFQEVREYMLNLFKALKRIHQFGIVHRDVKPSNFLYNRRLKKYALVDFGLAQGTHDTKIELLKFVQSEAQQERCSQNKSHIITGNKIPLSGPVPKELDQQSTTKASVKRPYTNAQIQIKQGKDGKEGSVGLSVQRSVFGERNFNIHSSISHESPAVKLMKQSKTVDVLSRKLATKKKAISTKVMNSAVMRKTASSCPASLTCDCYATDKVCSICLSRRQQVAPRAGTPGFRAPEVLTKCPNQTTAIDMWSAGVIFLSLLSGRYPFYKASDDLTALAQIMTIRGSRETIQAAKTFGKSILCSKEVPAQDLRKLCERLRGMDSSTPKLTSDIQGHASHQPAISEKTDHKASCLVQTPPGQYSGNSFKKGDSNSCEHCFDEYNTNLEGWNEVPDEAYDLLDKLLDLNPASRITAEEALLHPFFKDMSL
T1 sequence (Q9UBU7 whole entry partner): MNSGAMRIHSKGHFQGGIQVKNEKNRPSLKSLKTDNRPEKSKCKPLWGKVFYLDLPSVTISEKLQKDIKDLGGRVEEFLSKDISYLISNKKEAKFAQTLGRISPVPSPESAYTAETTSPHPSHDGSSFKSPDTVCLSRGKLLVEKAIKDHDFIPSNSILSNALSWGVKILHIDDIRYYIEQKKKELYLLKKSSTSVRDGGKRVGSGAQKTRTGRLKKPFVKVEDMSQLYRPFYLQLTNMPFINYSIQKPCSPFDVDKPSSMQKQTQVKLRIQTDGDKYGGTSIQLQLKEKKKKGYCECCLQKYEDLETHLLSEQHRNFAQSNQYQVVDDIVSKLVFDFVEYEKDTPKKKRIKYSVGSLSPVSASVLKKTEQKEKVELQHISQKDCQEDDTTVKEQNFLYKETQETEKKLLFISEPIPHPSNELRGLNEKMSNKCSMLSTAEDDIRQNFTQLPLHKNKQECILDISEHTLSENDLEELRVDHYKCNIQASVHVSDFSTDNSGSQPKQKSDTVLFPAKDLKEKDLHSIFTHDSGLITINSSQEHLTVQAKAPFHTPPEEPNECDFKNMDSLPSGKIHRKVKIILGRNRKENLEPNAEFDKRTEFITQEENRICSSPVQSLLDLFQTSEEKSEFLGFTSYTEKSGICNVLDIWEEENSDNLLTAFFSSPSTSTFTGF

In the case of `Cc1cnn(C[C@H]2COc3c(-c4cn[nH]c4)sc4c3N2CCNC4=O)c1` [Compound 45, (S)-5-((4-methyl-1H-pyrazol-1-yl)methyl)-2-(1H-pyrazol-4-yl)-4,5,7,8-tetrahydro-3-oxa-1-thia-5a,8-diazabenzo[cd]azulen-9(6H)-one], the pIC50 is 8.00 to 9.00. Then `C[C@H]1CN2CCOc3c(-c4ccncc4)sc(c32)C(=O)N1` [Compound 15, (S)-7-methyl-2-(pyridin-4-yl)-4,5,7,8-tetrahydro-3-oxa-1-thia-5a,8-diazabenzo[cd]azulen-9(6H)-one], with over 9.00; and `O=C1N[C@@H](CO)CN2CCOc3c(-c4cn[nH]c4)sc1c32` [Compound 48, (R)-7-(hydroxymethyl)-2-(1H-pyrazol-4-yl)-4,5,7,8-tetrahydro-3-oxa-1-thia-5a,8-diazabenzo[cd]azulen-9(6H)-one], with over 9.00; and `CC1(C)NC(=O)c2sc(-c3ccncc3)c3c2N1CCCO3` [Compound 3, 5,5-Dimethyl-1-(pyridin-4-yl)-4,5,7,8-tetrahydro-3H,6H-9-oxa-2-thia-4,5a-diazabenzo[cd]azulen-3-one], with over 9.00. For `C[C@H]1CNC(=O)c2sc(-c3cn[nH]c3)c3c2N1CCO3` [Compound 25, (S)-6-methyl-2-(1H-pyrazol-4-yl)-4,5,7,8-tetrahydro-3-oxa-1-thia-5a,8-diazabenzo[cd]azulen-9(6H)-one], the pIC50 is over 9.00.

On to `O=C1NC(C2CC(F)(F)C2)CN2CC(F)Cc3c(-c4cn[nH]c4)sc1c32` (single isomer, unassigned) [Compound 130, 7-(3,3-difluorocyclobutyl)-4-fluoro-2-(1H-pyrazol-4-yl)-4,5,7,8-tetrahydro-3H-1-thia-5a,8-diazabenzo[cd]azulen-9(6H)-one], for which the pIC50 is over 9.00. Turning to `O=C1N[C@@H]([C@@H]2CCCCO2)CN2CC(F)(F)Cc3c(-c4cn[nH]c4)sc1c32` (single isomer, unassigned) [Compound 140], the pIC50 is over 9.00. `C[C@H]1CN2CC(F)(F)Cc3c(-c4cn[nH]c4)sc(c32)C(=O)N1` [Compound 101, (10S)-6,6-difluoro-10-methyl-3-(1H-pyrazol-4-yl)-2-thia-8,11-diazatricyclo[6.4.1.0^4,13]trideca-1(13),3-dien-12-one]: the pIC50 was over 9.00. The result for `Cc1n[nH]cc1-c1sc2c3c1CC(F)(F)CN3C[C@H]([C@H]1CCCO1)NC2=O` (single isomer, unassigned) [Compound 119] reads over 9.00; that for `C[C@H]1CNC(=O)c2sc(-c3ccncc3)c3c2N1CCO3` [Compound 24, (S)-6-methyl-2-(pyridin-4-yl)-4,5,7,8-tetrahydro-3-oxa-1-thia-5a,8-diazabenzo[cd]azulen-9(6H)-one], 8.00 to 9.00. Then `CC(=O)NC[C@@H]1COc2c(-c3cn[nH]c3)sc3c2N1CCNC3=O` [Compound 57, N-[[(7R)-12-oxo-3-(1H-pyrazol-4-yl)-5-oxa-2-thia-8,11-diazatricyclo[6.4.1.0^4,13]trideca-1(13),3-dien-7-yl]methyl]acetamide], with over 9.00. In the case of `O=C1NC(C2CC(F)(F)C2)CN2CC(F)Cc3c(-c4cn[nH]c4)sc1c32` (single isomer, unassigned) [Compound 127, 7-(3,3-difluorocyclobutyl)-4-fluoro-2-(1H-pyrazol-4-yl)-4,5,7,8-tetrahydro-3H-1-thia-5a,8-diazabenzo[cd]azulen-9(6H)-one], the pIC50 is over 9.00.

`C[C@H]1CN2CCCc3c(-c4ccncc4)sc(c32)C(=O)N1` [Compound 31, (S)-7-methyl-2-(pyridin-4-yl)-4,5,7,8-tetrahydro-3H-1-thia-5a,8-diazabenzo[cd]azulen-9(6H)-one]: the negative-log IC50 (pIC50) was 8.00 to 9.00. Then `Cc1n[nH]cc1-c1sc2c3c1OCCN3C[C@H](C)NC2=O` [Compound 17], with 8.00 to 9.00. Then `O=C1NC([C@H]2[C@@H]3COC[C@@H]32)CN2CC(F)(F)Cc3c(-c4cn[nH]c4)sc1c32` (single isomer, unassigned) [Compound 124], with over 9.00; and `O=C1N[C@H](C23CCC(CC2)O3)CN2CC(F)(F)Cc3c(-c4cn[nH]c4)sc1c32` (single isomer, unassigned) [Compound 122], with under 8.00. As to `Cc1ccn(C[C@@H]2CNC(=O)c3sc(-c4cn[nH]c4)c4c3N2CCO4)n1` [Compound 61, (S)-6-((3-methyl-1H-pyrazol-1-yl)methyl)-2-(1H-pyrazol-4-yl)-4,5,7,8-tetrahydro-3-oxa-1-thia-5a,8-diazabenzo[cd]azulen-9(6H)-one], the pIC50 is over 9.00. For `CC1(C)NC(=O)c2sc(-c3ccnc(N)c3)c3c2N1CCO3` [Compound 13, 2-(2-aminopyridin-4-yl)-6,6-dimethyl-4,5,6,7-tetrahydro-8H-3-oxa-1-thia-5a,7-diazaacenaphthylen-8-one], the pIC50 was 8.00 to 9.00. Then `O=C1NC(C2CCCCO2)CN2CCCc3c(-c4cn[nH]c4)sc1c32` (single isomer, unassigned) [Compound 109], with under 8.00; and `CC1(C)NC(=O)c2sc(-c3c[nH]c4ncncc34)c3c2N1CCO3` [Compound 4, 6,6-dimethyl-2-(7H-pyrrolo[2,3-d]pyrimidin-5-yl)-4,5,6,7-tetrahydro-8H-3-oxa-1-thia-5a,7-diazaacenaphthylen-8-one], with 8.00 to 9.00. In the case of `CC(C)(O)C[C@@H]1CN2CC(F)(F)Cc3c(-c4cn[nH]c4)sc(c32)C(=O)N1` [Compound 131, (R)-4,4-difluoro-7-(2-hydroxy-2-methylpropyl)-2-(1H-pyrazol-4-yl)-4,5,7,8-tetrahydro-3H-1-thia-5a,8-diazabenzo[cd]azulen-9(6H)-one], the pIC50 is over 9.00.

With `O=C1NC([C@H]2[C@@H]3COC[C@@H]32)CN2CC(F)(F)Cc3c(-c4cn[nH]c4)sc1c32` (single isomer, unassigned) [Compound 123], the pIC50 was over 9.00. As for `CC1(C)NC(=O)c2sc(-c3c[nH]c4ncc(Cl)cc34)c3c2N1CCO3` [Compound 10, 2-(5-chloro-1H-pyrrolo[2,3-b]pyridin-3-yl)-6,6-dimethyl-4,5,6,7-tetrahydro-8H-3-oxa-1-thia-5a,7-diazaacenaphthylen-8-one], the negative-log IC50 (pIC50) is 8.00 to 9.00. Then `O=C1NC(C2CC(F)(F)C2)CN2CC(F)(F)Cc3c(-c4cn[nH]c4)sc1c32` (single isomer, unassigned) [Compound 114, (R or S)-7-(3,3-difluorocyclobutyl)-4,4-difluoro-2-(1H-pyrazol-4-yl)-4,5,7,8-tetrahydro-3H-1-thia-5a,8-diazabenzo[cd]azulen-9(6H)-one], with over 9.00; and `O=C1NC[C@H](CN2CCC2)N2CCCc3c(-c4cn[nH]c4)sc1c32` [Compound 94, (R)-6-(azetidin-1-ylmethyl)-2-(1H-pyrazol-4-yl)-4,5,7,8-tetrahydro-3H-1-thia-5a,8-diazabenzo[cd]azulen-9(6H)-one], with 8.00 to 9.00; and `Cc1ccnn1C[C@H]1CN2CCOc3c(-c4cn[nH]c4)sc(c32)C(=O)N1` [Compound 44, (R)-7-((5-methyl-1H-pyrazol-1-yl)methyl)-2-(1H-pyrazol-4-yl)-4,5,7,8-tetrahydro-3-oxa-1-thia-5a,8-diazabenzo[cd]azulen-9(6H)-one], with over 9.00. As for `O=C1NC(C2CC(F)(F)C2)CN2CC(F)(F)Cc3c(-c4cn[nH]c4)sc1c32` (single isomer, unassigned) [Compound 113, (R or S)-7-(3,3-difluorocyclobutyl)-4,4-difluoro-2-(1H-pyrazol-4-yl)-4,5,7,8-tetrahydro-3H-1-thia-5a,8-diazabenzo[cd]azulen-9(6H)-one], the negative logarithm of the IC50 (pIC50) was over 9.00.

With `N#CC[C@@H]1CNC(=O)c2sc(-c3cn[nH]c3)c3c2N1CCO3` [Compound 59, (R)-2-(9-oxo-2-(1H-pyrazol-4-yl)-4,5,6,7,8,9-hexahydro-3-oxa-1-thia-5a,8-diazabenzo[cd]azulen-6-yl)acetonitrile], the negative logarithm of the IC50 (pIC50) was over 9.00. Then `Cc1ccn(C[C@H]2CN3CCOc4c(-c5cn[nH]c5)sc(c43)C(=O)N2)n1` [Compound 43, (R)-7-((3-methyl-1H-pyrazol-1-yl)methyl)-2-(1H-pyrazol-4-yl)-4,5,7,8-tetrahydro-3-oxa-1-thia-5a,8-diazabenzo[cd]azulen-9(6H)-one], with over 9.00.

With `C[C@H]1CN2C(=O)COc3c(-c4cn[nH]c4)sc(c32)C(=O)N1` [Compound 20, (S)-7-methyl-2-(1H-pyrazol-4-yl)-7,8-dihydro-3-oxa-1-thia-5a,8-diazabenzo[cd]azulene-5,9(4H,6H)-dione], the negative logarithm of the IC50 (pIC50) is over 9.00. For `O=C1NC[C@H](CO)N2CCCc3c(-c4cn[nH]c4)sc1c32` [Compound 87, (R)-6-(hydroxymethyl)-2-(1H-pyrazol-4-yl)-4,5,7,8-tetrahydro-3H-1-thia-5a,8-diazabenzo[cd]azulen-9(6H)-one], the pIC50 was over 9.00. On to `COC[C@@H]1CN(C)C(=O)c2sc(-c3cn[nH]c3)c3c2N1CCO3` [Compound 56, (S)-6-(methoxymethyl)-8-methyl-2-(1H-pyrazol-4-yl)-4,5,7,8-tetrahydro-3-oxa-1-thia-5a,8-diazabenzo[cd]azulen-9(6H)-one], for which the pIC50 was 8.00 to 9.00.

Turning to `O=C1NC2(CCOCC2)CN2CCOc3c(-c4cn[nH]c4)sc1c32` [Compound 64, 2-(1H-pyrazol-4-yl)-2′,3′,4,5,5′,6′-hexahydro-6H-3-oxa-1-thia-5a,8-diazaspiro[benzo[cd]azulene-7,4′-pyran]-2,2a1(9a)-dien-9(8H)-one], the negative-log IC50 (pIC50) was over 9.00.
